A short description of this data set: Equilibrium aqueous solubility. The class given is physicochemical. To be noted: physiologically relevant pH's.

On to `COc1cc2c(N3CCN(C(=O)Nc4ccc(OC(C)C)cc4)CC3)ncnc2cc1OCCCN1CCCCC1.C[C@H](O)C(=O)O` [Form 1, 4-[6-methoxy-7-(3-piperidin-1-yl-propoxy)quinazolin-4-yl]piperazine-1-carboxylic acid(4-isopropoxyphenyl)-amide (L)-lactate (I) Form 1], for which the solubility in water entry is “greater than 450 mg/mL”.

As to `COc1cc2c(N3CCN(C(=O)Nc4ccc(OC(C)C)cc4)CC3)ncnc2cc1OCCCN1CCCCC1.C[C@H](O)C(=O)O` [Form 4, 4-[6-methoxy-7-(3-piperidin-1-yl-propoxy)quinazolin-4-yl]piperazine-1-carboxylic acid(4-isopropoxyphenyl)-amide (L)-lactate (I) Form 4], the solubility in water entry is “greater than 325 mg/mL”.
